Consider five molecules from US5360802A, “Benzodiazepine derivatives, compositions containing them and their use in therapy” (priority 1992, dated 1994).

Where two headings read alike, the source gives them in different places.

The target of test [1] is T1, CCK receptor (Pancreas) (Rattus norvegicus, UniProt P30551).
T1 construct: The whole pancreas was dissected free of fat tissue and was homogenized; from tissue; host or cells: rat whole pancreas (male Sprague-Dawley), membrane homogenate
T1 sequence (P30551 1-444): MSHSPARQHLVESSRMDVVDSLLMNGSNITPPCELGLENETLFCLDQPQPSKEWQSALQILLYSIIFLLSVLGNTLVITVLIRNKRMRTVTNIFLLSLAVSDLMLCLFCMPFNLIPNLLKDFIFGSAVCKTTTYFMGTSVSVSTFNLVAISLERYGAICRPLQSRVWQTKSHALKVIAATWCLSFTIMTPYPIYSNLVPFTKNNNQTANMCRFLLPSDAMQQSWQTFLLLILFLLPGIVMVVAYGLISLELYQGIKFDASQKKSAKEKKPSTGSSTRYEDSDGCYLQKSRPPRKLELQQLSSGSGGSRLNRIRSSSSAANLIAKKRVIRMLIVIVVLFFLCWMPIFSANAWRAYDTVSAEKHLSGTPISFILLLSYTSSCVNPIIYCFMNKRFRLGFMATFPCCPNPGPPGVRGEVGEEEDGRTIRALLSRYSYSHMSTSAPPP
Put plainly: CCK Receptor Binding (Pancreas), displacement of 125I-CCK-8. Set-up: species or system rat (male Sprague-Dawley). Particulars: rat pancreas membranes, 125I-CCK-8 50 pM; for IC50: 25° C., 2 hours. As to the method: CCK-8 sulphated was radiolabelled with ^125 I-Bolton Hunter reagent (2000 Ci/mmole). Receptor binding was performed according to Chang and Lotti (Proc. Natl. Acad. Sci. 83, 4923-4926, 1986) with minor modifications.
Male Sprague-Dawley rats (150-200 g) were sacrificed by decapitation. The whole pancreas was dissected free of fat tissue and was homogenized in 25 volumes of ice-cold 10 mM N-2-hydroxyethyl-piperazine-N'-2-ethane sulphonic acid (HEPES) buffer with 0.1% soya bean trypsin inhibitor (pH 7.4 at 25° C. ) with a Kinematica Polytron. The homogenates were centrifuged at 47,800 g for 10 min. Pellets were resuspended in 10 volumes of binding assay buffer (20mM (HEPES)), 1 mM ethylene glycol-bis-(β-aminoethylether-N,N'-tetraacetic acid) (EGTA), 5 mM MgCl2, 150 mM NaCl, bacitracin 0.25 mg/ml, soya bean trypsin inhibitor 0.1 mg/ml, and bovine serum albumin 2 mg/ml pH 6.5 at 25° C.) using a Teflon (trademark). homogenizer, 15 strokes at 500 rpm. The homogenate was further diluted in binding assay buffer to give a final concentration of 0.5 mg original wet weight/1 ml buffer. […] All assays were run in.duplicate. The reaction mixtures were incubated at 25° C. for 2 hours and the reaction terminated by rapid filtration (Brandell 24 well cell harvester) over Whatman GF/C filters, washing 3×4 mls with ice-cold 100 Mm NaCl. The radioactivity on the filters was counted with a LKB gamma counter.
(§1) Drug displacement studies were performed with at least 10 concentrations of compounds of Formula I and the IC50 values were determined by regression analysis IC50 refers to the concentration of the compound required to inhibit 50% of specific binding of ^125 I-CCK-8.
For orientation: Loss of bound radioactivity is the signal in a displacement assay; it reports binding, not function.

Test [2] addresses T2, Gastrin receptor (Cavia porcellus, UniProt H0VZC5).
T2 construct: from tissue; host or cells: guinea pig gastric mucosal glands (male Hartley), isolated with collagenase
T2 sequence (H0VZC5 1-426): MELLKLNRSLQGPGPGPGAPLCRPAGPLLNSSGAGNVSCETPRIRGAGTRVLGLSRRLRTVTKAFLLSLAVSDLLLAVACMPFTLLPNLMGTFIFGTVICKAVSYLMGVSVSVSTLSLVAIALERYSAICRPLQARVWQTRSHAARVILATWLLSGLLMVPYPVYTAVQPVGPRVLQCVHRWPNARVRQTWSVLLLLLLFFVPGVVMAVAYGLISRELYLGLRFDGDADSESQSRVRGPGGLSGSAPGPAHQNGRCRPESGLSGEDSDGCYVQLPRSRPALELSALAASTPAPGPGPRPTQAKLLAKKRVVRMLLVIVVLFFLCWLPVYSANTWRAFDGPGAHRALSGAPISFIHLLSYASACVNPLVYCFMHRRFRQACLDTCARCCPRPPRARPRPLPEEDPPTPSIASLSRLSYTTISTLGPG
Put plainly: Gastrin Receptor Binding in Guinea Pig Gastric Glands, displacement of 125I-gastrin. Set-up: species or system guinea pig (male Hartley). Particulars: 125I-gastrin 0.1 nM, 25° C., 30 minutes. The protocol: Gastrin antagonist activity of compounds of Formula I was determined using the following assay.
Guinea pig gastric mucosal glands were prepared by the procedure of Chang et. al., Science, 230, 177-179 (1985) with slight modifications. […] The tissues were passed twice through a 5 ml syringe to liberate the gastric glands, and then filtered through Nitex (trademark) #202 gauge nylon mesh. The filtered glands were centrifuged at 272 g for 5 minutes and washed twice by resuspension in 25 ml buffer and centrifugation.
The washed guinea pig gastric glands prepared as above were resuspended in 25 ml of standard buffer. For binding studies, to 250 μl of gastric glands, 30 μl of buffer (for total binding) or gastrin (3 μM final concentration, for nonspecific binding) or test compound and 20 μl of ^125 I-gastrin (NEN, 2200 Ci/mmole, 0.1 nM final concentration) were added. All assays were run in triplicate. […] The reaction mixtures, after incubation at 25° C. for 30 minutes in a shaking water bath were rapidly filtered (Brandell 24 well cell harvester) over Whatman G/F B filters presoaked in assay buffer and immediately washed further with 3×4 ml of 100 mM ice cold NaCl. The radioactivity on the filters was measured using a LKB gamma counter.

Test [3] deals with T3, CCK receptor (Brain) (Cavia porcellus, UniProt H0VZC5).
T3 construct: the cortex was removed and homogenized in 25 mL ice-cold 0.32M sucrose; from tissue; host or cells: guinea pig cortex (male Hartley), P2 membrane pellet
T3 sequence (H0VZC5 1-426): T2 sequence (H0VZC5 1-426)
Put plainly: biochemical. Type of test: binding, guinea pig (male Hartley), cortex. As to the method:
CCK-8 sulphated was radiolabelled and the binding was performed according to the description for the pancreas method with minor modifications.
Male Hartley guinea pigs (300-500 g) were sacrificed by decapitation and the cortex was removed and homogenized in 25 mL ice-cold 0.32M sucrose. The homogenates were centrifuged at 1000 g for 10 minutes and the resulting supernatant was recentrifuged at 20,000 g for 20 minutes. The P2 pellet was resuspended in binding assay buffer (20 mM HEPES, 5 mM MgCl2, 0.25 mg/ml bacitracin, 1 mM EGTA pH 6.5 at 25° C. ), using a Teflon (trademark) homogenizer (5 strokes at 500 rpm) to give a final concentration of 10 mg original wet weight/1.2 ml buffer. […] All assays were run in duplicate. The reaction mixtures were incubated at 25° C. for 2 hours and then the reaction was terminated by rapid filtration (Brandell 24 well cell harvester) on Whatman GF/C filters with 3×5 ml washes of cold 100 mM NaCl. The radioactivity on the filters was counted with a LKB gamma counter.
as §1

Setting [4] is: 125I-CCK-8 50 pM, guinea pig cortex membranes, 25° C., 2 hours, read-out: IC50, 125I-CCK Brain.

As for `CC(C)CN1C(=O)C(NC(=O)Nc2cccc(-c3nn[nH]n3)c2)N=C(C2CCCCC2)c2ccccc21` (racemic) [Example 2, N-[3(R,S)-5-Cyclohexyl-2,3-dihydro-1-(2-methylpropyl)-2-oxo-1H-1,4-benzodiazepin-3-yl] N'-[3-tetrazol-5-ylphenyl]urea], in test [1] (at 3 μM), the “% (inhibition of 125I-CCK binding) Pancreas” value is 27%.

On to `CN1C(=O)C(NC(=O)Nc2cccc(C(=O)NS(=O)(=O)C(C)(C)C)c2)N=C(C2CCCC2)c2ccccc21` (racemic) [Example 39, N-[3(R,S)-5-Cyclopentyl-2,3-dihydro-1-methyl-2-oxo-1H-1,4-benzodiazepin-3-yl]N'-[3-(1,1-dimethylethylsulphonylaminocarbonyl)phenylurea], for which the concentration for half-maximal inhibition (IC50) (as a rule, the concentration at which inhibition is half-maximal) came out at 270 nM in test [1], 1.18 nM in test [2] and 0.56 nM in test [3] (setting [4]).

As to `CN1C(=O)C(NC(=O)Nc2cccc(S(=O)(=O)Nc3cnccn3)c2)N=C(C2CCCCC2)c2ccccc21` (racemic) [Example 22, N-[3(R,S)-5-Cyclohexyl-2,3-dihydro-1-methyl-2-oxo-1H-1,4-benzodiazepin-3-yl] N'-[3-(2-pyrazinylaminosulphonyl)phenyl]urea], the IC50 in test [1] amounted to 70 nM; in test [3] (setting [4]), 6.8 nM.

For `CN1C(=O)C(NC(=O)Nc2cccc(C(=O)NS(=O)(=O)C(C)(C)C)c2)N=C(C2CCCCC2)c2ccccc21` (racemic) [Example 31, N-[3(R,S)-5-Cyclohexyl-2,3-dihydro-1-methyl-2-oxo-1H-1,4-benzodiazepin-3-yl]N'-[3-(1,1-dimethylethylsulphonylaminocarbonyl)phenyl]urea], the values for the IC50 in test [1] and in test [3] (setting [4]) were 6.2 nM and 0.22 nM, respectively.

As for `CN1C(=O)C(NC(=O)Nc2cccc([S+](C)[O-])c2)N=C(C2CCCCC2)c2ccccc21` (racemic) [Example 42, N-[3(R,S)-5-Cyclohexyl-2,3-dihydro-1-methyl-2-oxo-1H-1,4-benzodiazepin-3-yl]N'-[3(R,S)-(methylsulphinyl)phenyl]urea], the IC50 in test [1] came to 18 nM; in test [3], 15 nM.
